# pIC50: −log10 of the molar value. Like-named read-outs stand apart in the source and are kept apart here.
# Biological target: T1, mouse TLR7 (Mus musculus, UniProt P58681)
# T1 sequence (P58681 27-1050): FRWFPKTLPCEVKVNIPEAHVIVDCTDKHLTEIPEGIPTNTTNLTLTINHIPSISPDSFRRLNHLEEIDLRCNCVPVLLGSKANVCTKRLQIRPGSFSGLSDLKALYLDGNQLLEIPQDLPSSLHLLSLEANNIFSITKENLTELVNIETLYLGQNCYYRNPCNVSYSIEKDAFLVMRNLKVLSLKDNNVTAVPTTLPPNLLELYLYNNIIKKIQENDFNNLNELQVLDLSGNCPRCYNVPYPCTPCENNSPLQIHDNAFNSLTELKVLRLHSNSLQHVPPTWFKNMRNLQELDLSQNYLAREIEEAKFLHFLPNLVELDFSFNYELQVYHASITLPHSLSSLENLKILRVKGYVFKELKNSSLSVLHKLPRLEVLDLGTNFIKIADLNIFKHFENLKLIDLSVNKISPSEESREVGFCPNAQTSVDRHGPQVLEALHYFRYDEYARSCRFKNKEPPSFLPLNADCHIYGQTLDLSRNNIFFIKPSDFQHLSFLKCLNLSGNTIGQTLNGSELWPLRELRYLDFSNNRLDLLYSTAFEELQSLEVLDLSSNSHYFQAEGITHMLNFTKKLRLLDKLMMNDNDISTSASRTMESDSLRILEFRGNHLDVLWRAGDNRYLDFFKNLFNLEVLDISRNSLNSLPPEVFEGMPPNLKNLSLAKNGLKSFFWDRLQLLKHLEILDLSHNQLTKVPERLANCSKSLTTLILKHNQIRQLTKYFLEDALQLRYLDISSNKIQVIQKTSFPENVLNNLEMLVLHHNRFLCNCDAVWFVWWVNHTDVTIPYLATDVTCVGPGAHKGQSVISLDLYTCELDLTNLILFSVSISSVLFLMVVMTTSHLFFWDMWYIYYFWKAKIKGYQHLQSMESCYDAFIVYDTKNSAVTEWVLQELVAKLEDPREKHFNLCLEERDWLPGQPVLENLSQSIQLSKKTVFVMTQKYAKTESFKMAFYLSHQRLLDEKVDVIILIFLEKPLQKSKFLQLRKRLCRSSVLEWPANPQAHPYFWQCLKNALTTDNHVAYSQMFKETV
# Experiment: HEK-293 mouse TLR7 NF-kappaB luciferase reporter assay (CL097)
# Format: cell-based
# Conditions: HEK-mTLR7, average of three tests
# Experimental: Effects on mouse TLR7 were also compared. Cells were stimulated overnight with TLR7/8 agonist CL097 at pre-determined ED70-80: 3 ug/ml for HEK-hTLR7, 1.5 ug/ml for HEK-mTLR7 and 12 ug/ml for HEK-hTLR8, before reading luminescence intensity. Three tests were performed and IC50 value was determined using Graphpad Prism 6 nonlinear regression curve fit.
# HEK-293 cells (ATCC) were engineered to stably express a NF-kappaB transcription factor inducible E-selectin (ELAM-1) luciferase reporter derived from the plasmid pGL3 (Promega) containing base pairs −2241 bp to −254 bp from the promoter of the human E-selectin gene (Accession No. NM_000450). These cells were then subsequently engineered to stably and individually express human TLR4, TLR7 or TLR9 full-length ORF cDNAs. Human TLR4 cDNA (Accession No. NM_138554) was cloned into pcDNA 3.0 expression vector (Invitrogen). TLR4 transfected cells were also engineered to express human MD-2 co-receptor [MD-2 cDNA (Accession No. NM_015364) was cloned into the pEF-BOS vector] and were supplemented with 10 nM soluble CD14 (R&D Systems) in the media to optimize LPS responsiveness. Human TLR9 cDNA (Accession No. NM_017442) was cloned into the pBluescript II KS vector (Agilent). Human TLR7 cDNA (Accession No. NM_016562) was obtained from OriGene. […]
Structure (SMILES),pIC50 (IC50 average),pIC50 (read-out: IC50 average)
"C[C@@H]1CN(c2ccc(C#N)c3ncccc23)C[C@H](C(=O)N[C@H]2CNC[C@H]2F)O1.Cl [ER-899742, (2R,6R)-4-(8-cyanoquinolin-5-yl)-N-[(3S,4R)-4-fluoropyrrolidin-3-yl]-6-methylmorpholine-2-carboxamide hydrochloride]",7.15,–
"CCN(CCO)CCCC(C)Nc1ccnc2cc(Cl)ccc12 (centres unmarked) [HCQ, hydroxychloroquine, reference compound]",–,4.85
